Results on 2 compounds are retold here after patent US4119653A, “Co-ordination compounds of platinum” (Rustenburg Platinum Mines Limited, priority 1976, dated 1978).

Structures are written as SMILES. Bounds are passed on as bounds.

The LD50 is the dose at which mortality reaches 50%. The term % Inhibition denotes the drop in the measured response relative to a control, in per cent.

The subject of one series is ADJ/PC6 tumour. Description: Antitumour test, ADJ/PC6 tumour, arachis oil intraperitoneal. It is filed as in vivo, Balb-c white mice.
For the next series, the system named is Balb-c white mice. The series can be described thus: Toxicity (LD50 / deaths), arachis oil intraperitoneal.

Excerpt for ADJ/PC6 tumour: Vehicle: Arachis oil/Intraperitoneal
Subject: Balb-c white mice
(§1) Again as with the results given earlier, the tumour was ADJ/PC6, the vehicle was Arachis oil administered intraperitoneally to Balb-c white mice.
Excerpt for Balb-c white mice: Vehicle: Arachis oil/Intraperitoneal
Subject: Balb-c white mice
as §1

For the compound `CCCCCCCCN.CCCCCCCCN.[Cl][Pt]([Cl])([Cl])[Cl]` [Cl4 n-octyl], in the series with ADJ/PC6 tumour (table 9, line under Cl4 n-octyl, dose not stated), the inhib is listed as below 20%. This compound also came in with an LD50 with Balb-c white mice (table 9) of 270 mg/kg.

On to `[NH2][Pt]([NH2])([OH])([OH])([Cl])[Cl]` [trans di-hydroxo complexes of Pt(IV)], for which the “% Inhibition” value with ADJ/PC6 tumour (dose 12 mgm/Kgm, Balb-c mice) came out at 95.4%; in the series on ADJ/PC6 tumour (dose 60 mgm/Kgm, Balb-c mice) it was 97.1%. Moreover, the ED90 with ADJ/PC6 tumour (table 1, doses in mgm/Kgm, Balb-c mice) was below 12 mg/kg. This compound also gave an LD50 with Balb-c white mice (table 1, doses in mgm/Kgm) of 135 mg/kg.
